Key:
human P2Y12 receptor = molecular target: T1, human P2Y12 receptor (Homo sapiens, UniProt Q9H244); assay: Human P2Y12 recombinant cell membrane binding assay; conditions: competition against 33P 2MeS-ADP; CHO cell membranes with recombinant human P2Y12 receptor
T1 construct: expressed in transfected cells; host or cells: CHO cells (membrane preparation)
Method: The ability of the compounds of the formula I to inhibit the P2Y12 receptor can be assessed by determining the concentration of the compound of the formula I that binds to the human P2Y12 Recombinant Cell Membrane Binding Assay with 33P 2MeS-ADP.
Human P2Y12 Recombinant Cell Membrane Binding Assay
The ability of a test compound to bind to the P2Y12 receptor was evaluated in a recombinant cell membrane binding assay. In this competitive binding assay, the test compound competed against a radiolabeled agonist for binding to the P2Y12 receptor, expressed on the cell membrane. Inhibition of binding of the labeled material was measured and correlated to the amount and potency of the test compound. This binding assay is a modification of the procedure described by Takasaki, J. et. al, Mol. Pharmacol., 2001, Vol. 60, pg. 432.
As source of P2Y12, a membrane preparation was prepared from Chinese Hamster Ovary (CHO) cells with recombinant expression of the human P2Y12 receptor according to standard procedures.
To a 96-well microtiterplate the following were added: a) 24 μl of assay buffer (10 mM HEPES, 138 mM NaCl, […] KCl, 12 mM NaHCO3, 1 mM EDTA-Na, 0.1% BSA, pH 7.4) b) 1 μL compound in DMSO c) 50 μL P2Y12 CHO membrane (20 μg/ml) and after 15 min at RT d) 25 μL of 1.61 nM 33P 2MeS-ADP (Perkin Elmer NEN custom synthesis, specific activity ˜2100Ci/mmol) made in assay buffer.
After 20 min incubation at RT samples were transferred to 96-well microtiter filterplates (Millipore HTS GF/B), pre-wetted for 20 min with 300 μL of stop buffer (10 mM HEPES, 138 mM NaCl pH 7.4) and then filtered through completely with a Millipore plate vacuum. Next, wells were washed four times with 400 μl/well of stop buffer on a plate vacuum. The plate was disassembled and allowed to air dry overnight with the filter side up over night. The filter plates were snapped into adapter plates and 0.1 mL of Microscint 20 Scintillation Fluid (Perkin Elmer #6013621) was added to each well. The top of the filterplate was sealed with plastic plate covers. The sealed filterplate were incubated 2 hours at RT. A Microbeta Scintillation Counter was used to measure counts. The binding of compound is expressed as a % inhibition of specific binding, defined by subtraction of the background with 1 mM ADP.
Compounds were diluted as 10 mM DMSO stocks and tested in a four-point, five-fold dilution series run in triplicate beginning at 10 μM, final concentration. Data were analyzed using a four-parameter curve fit with a fixed minimum and maximum experimentally defined as the average positive and negative controls on each plate. The IC50 data of the above described human P2Y12 recombinant cell membrane binding assay for exemplary compounds of the present invention are shown in table 1.

[1] = tested on: human platelet rich plasma (ADP-induced platelet aggregation); assay: Inhibition of human platelet aggregation, 96-well assay; format: cell-based; conditions: 20 min, aggregation induced by ADP, 96-well plates, AUC of absorbance over 20 minutes
Method: Inhibition of Human Platelet Aggregation
Alternatively to a binding assay which measures a compound's ability to bind to the P2Y12 receptor, the effect on cellular function was also determined. This ability of the compound was evaluated in two platelet aggregation assays: in 96-well plates and with the “Born”-method using single cuvettes.
Whole blood was collected from healthy volunteers using 20 ml syringes containing 2 ml of ACD-A Aqua-Citrat-Dextrose-A, Fresenius). The anticoagulated whole blood was transferred into 15 ml polypropylene conical tubes (10 ml per tube). The tubes were centrifuged for 15 minutes at 150×g at RT without using the centrifuge brake. This procedure leads to a pellet of cellular components and a supernatant of platelet rich plasma (PRP). The PRP layer was collected from each tube and pooled for each donor. To avoid carry over of cellular components following centrifugation, approximately 5 ml of PRP was left in the tube. The platelet concentration was determined using a Coulter Counter.
The 15 ml tubes containing the pellet of cellular components were centrifuged again for 10 minutes at 1940×g. This pelleted out most particulate blood constituents remaining, leaving a layer of Platelet Poor Plasma (PPP). The PPP was collected for each donor. The PRP layer, previously set aside, was diluted with PPP to a final concentration of approximately 3×E8 platelets/ml with the PPP.
The human platelet aggregation assay is performed in 96-well plates using a microtiter plate reader (SpectraMax Plus 384 with SoftMax Pro software from Molecular Devices). In the plate 15 μl of test compound at 10× final concentration in NaCl is mixed with 120 μl fresh PRP and incubated for 5 minutes. Following that incubation period, 15 μl of 40 μM ADP is added to the reaction mix. This addition of ADP is sufficient to induce aggregation in the absence of an inhibitor. The plates are then transferred to the microplate reader and aggregation is measured over 20 minutes. The instrument settings include: Absorbance at 650 nm, run time 20 minutes with readings in 1-minute intervals and 50 seconds shaking between readings all performed at 37° C. Results of the assay are expressed as % inhibition, and are calculated using area under curve (AUC) of the absorbance over 20 minutes.
The IC50 data of the above described platelet aggregation 96-well assay using human platelet rich plasma for exemplary compounds of the present invention are shown in table 2.

T1 sequence (Q9H244 whole entry): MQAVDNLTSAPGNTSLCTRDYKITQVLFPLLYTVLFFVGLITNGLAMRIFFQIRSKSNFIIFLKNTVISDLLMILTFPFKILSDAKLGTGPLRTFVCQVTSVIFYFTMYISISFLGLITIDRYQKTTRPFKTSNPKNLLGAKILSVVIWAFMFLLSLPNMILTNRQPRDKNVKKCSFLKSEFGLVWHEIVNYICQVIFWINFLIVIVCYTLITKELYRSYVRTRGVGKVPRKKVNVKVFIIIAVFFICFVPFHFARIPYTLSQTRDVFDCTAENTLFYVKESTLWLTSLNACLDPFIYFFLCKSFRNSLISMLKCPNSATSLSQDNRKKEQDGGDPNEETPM

IC50 [1] [µM] | Structure (SMILES) | IC50 (human P2Y12 receptor) [µM]
– | CCOC(=O)N1CCN(C(=O)[C@H](CC(=O)O)NC(=O)c2cc(OCC(=O)C(C)(C)C)n(-c3ccccc3)n2)CC1 [Example 163, 4-((S)-3-Carboxy-2-{[5-(3,3-dimethyl-2-oxo-butoxy)-1-phenyl-1H-pyrazole-3-carbonyl]-amino}-propionyl)-piperazine-1-carboxylic acid ethyl ester] | 0.2
– | CCCCOC(=O)N1CCN(C(=O)[C@H](CCC(=O)O)NC(=O)c2cc(OCC(=O)C(C)(C)C)n(-c3ccccc3)n2)CC1 [Example 147, 4-((S)-4-Carboxy-2-{[5-(3,3-dimethyl-2-oxo-butoxy)-1-phenyl-1H-pyrazole-3-carbonyl]-amino}-butyryl)-piperazine-1-carboxylic acid butyl ester] | 0.095
– | CCOC(=O)N1CCN(C(=O)[C@H](CC(C(=O)O)C(=O)O)NC(=O)c2cc(OC3(C(=O)OCC)CCC3)n(-c3ccccc3)n2)CC1 [Example 61, 2-[(S)-2-{[5-(1-Ethoxycarbonyl-cyclobutoxy)-1-phenyl-1H-pyrazole-3-carbonyl]-amino}-3-(4-ethoxycarbonyl-piperazin-1-yl)-3-oxo-propyl]-malonic acid] | 0.379
– | CCOC(=O)N1CCN(C(=O)[C@H](CNc2c(O)c(=O)c2=O)NC(=O)c2cc(OCC(=O)C(C)(C)C)n(-c3ccccc3)n2)CC1 [Example 136, 4-[(S)-2-{[5-(3,3-Dimethyl-2-oxo-butoxy)-1-phenyl-1H-pyrazole-3-carbonyl]-amino}-3-(2-hydroxy-3,4-dioxo-cyclobut-1-enylamino)-propionyl]-piperazine-1-carboxylic acid ethyl ester] | 3.5
– | CCOC(=O)N1CCN(C(=O)[C@H](CNC(=O)C(=O)O)NC(=O)c2cc(OCC(=O)C(C)(C)C)n(-c3ccccc3)n2)CC1 [Example 134, 4-[(S)-2-{[5-(3,3-Dimethyl-2-oxo-butoxy)-1-phenyl-1H-pyrazole-3-carbonyl]-amino}-3-(oxalyl-amino)-propionyl]-piperazine-1-carboxylic acid ethyl ester] | 0.501
– | CC(C)(C)C(=O)COc1cc(C(=O)N[C@@H](CCC(=O)O)C(=O)N2CCC(C(=O)c3cccc(Cl)c3)CC2)nn1-c1ccccc1 [Example 127, (S)-5-[4-(3-Chloro-benzoyl)-piperidin-1-yl]-4-{[5-(3,3-dimethyl-2-oxo-butoxy)-1-phenyl-1H-pyrazole-3-carbonyl]-amino}-5-oxo-pentanoic acid] | 2.8
– | Cc1cc(COc2cc(C(=O)N[C@@H](CCC(=O)O)C(=O)N3CCN(c4cccc(C(F)(F)F)c4)CC3)nn2-c2ccccc2)no1 [Example 120, (S)-4-{[5-(5-Methyl-isoxazol-3-ylmethoxy)-1-phenyl-1H-pyrazole-3-carbonyl]-amino}-5-oxo-5-[4-(3-trifluoromethyl-phenyl)-piperazin-1-yl]-pentanoic acid] | 3.5
1.48 | CCOC(=O)N1CCN(C(=O)[C@H](CCC(=O)O)NC(=O)c2cc(OCC(=O)N[C@@H](C)C(=O)O)n(-c3ccccc3)n2)CC1 [Example 138, 4-[(S)-4-Carboxy-2-({5-[((S)-1-carboxy-ethylcarbamoyl)-methoxy]-1-phenyl-1H-pyrazole-3-carbonyl}-amino)-butyryl]-piperazine-1-carboxylic acid ethyl ester] | –
– | COc1cc(OC)cc(N2CCN(C(=O)[C@H](CCC(=O)O)NC(=O)c3cc(OCC(=O)C(C)(C)C)n(-c4ccccc4)n3)CC2)c1 [Example 105, (S)-5-[4-(3,5-Dimethoxy-phenyl)-piperazin-1-yl]-4-{[5-(3,3-dimethyl-2-oxo-butoxy)-1-phenyl-1H-pyrazole-3-carbonyl]-amino}-5-oxo-pentanoic acid] | 1.4
2.19 | CCOC(=O)N1CCN(C(=O)[C@H](CCC(=O)O)NC(=O)c2cc(OCC(=O)NC3(C(=O)NC4CCC4)CCC3)n(-c3ccccc3)n2)CC1 [Example 167, 4-{(S)-4-Carboxy-2-[(5-{[1-(cyclobutyl-carbamoyl)-cyclobutylcarbamoyl]-methoxy}-1-phenyl-1H-pyrazole-3-carbonyl)-amino]-butyryl}-piperazine-1-carboxylic acid ethyl ester] | –
– | CCOC(=O)N1CCN(C(=O)[C@H](CCC(=O)O)NC(=O)c2cc(OC3(C(=O)O)CCC3)n(-c3ccccc3)n2)CC1 [Example 7, 4-((S)-4-Carboxy-2-{[5-(1-carboxy-cyclobutoxy)-1-phenyl-1H-pyrazole-3-carbonyl]-amino}-butyryl)-piperazine-1-carboxylic acid ethyl ester] | 0.601
2.6 | CCOC(=O)N1CCN(C(=O)[C@H](CCC(=O)O)NC(=O)c2cc(OCC(=O)C3CC3)n(-c3ccccc3)n2)CC1 [Example 96, 4-((S)-4-Carboxy-2-{[5-(2-cyclopropyl-2-oxo-ethoxy)-1-phenyl-1H-pyrazole-3-carbonyl]-amino}-butyryl)-piperazine-1-carboxylic acid ethyl ester] | –
– | CCOC(=O)N1CCN(C(=O)[C@H](CC(=O)NS(C)(=O)=O)NC(=O)c2cc(OCC(=O)C(C)(C)C)n(-c3ccccc3)n2)CC1 [Example 164, 4-((S)-2-{[5-(3,3-Dimethyl-2-oxo-butoxy)-1-phenyl-1H-pyrazole-3-carbonyl]-amino}-4-methanesulfonylamino-4-oxo-butyryl)-piperazine-1-carboxylic acid ethyl ester] | 1.6
1.85 | CCOC(=O)N1CCN(C(=O)[C@H](CCC(=O)O)NC(=O)c2cc(OCC(=O)N[C@H](C)C(=O)O)n(-c3ccccc3)n2)CC1 [Example 139, 4-[(S)-4-Carboxy-2-({5-[((R)-1-carboxy-ethylcarbamoyl)-methoxy]-1-phenyl-1H-pyrazole-3-carbonyl}-amino)-butyryl]-piperazine-1-carboxylic acid ethyl ester] | –
– | CC(C)(C)C(=O)COc1cc(C(=O)N[C@@H](CCC(=O)O)C(=O)N2CCN(C(=O)OC3CCC3)CC2)nn1-c1ccccc1 [Example 158, 4-((S)-4-Carboxy-2-{[5-(3,3-dimethyl-2-oxo-butoxy)-1-phenyl-1H-pyrazole-3-carbonyl]-amino}-butyryl)-piperazine-1-carboxylic acid cyclobutyl ester] | 0.266

From patent publication US8598179B2, “Pyrazole-carboxamide derivatives as P2Y12 antagonists” (Sanofi, priority 2007, dated 2013)
